According to patent US20250230193A1, “CYCLIC COMPOUND HAVING SELECTIVE KRAS INHIBITORY EFFECT ON HRAS AND NRAS” (CHUGAI SEIYAKU KABUSHIKI KAISHA, priority 2022, published 2025):

Legend:
[1] = target: GDP-bound NRAS wild-type protein (Homo sapiens, UniProt P01111); assay: Binding to NRAS by surface plasmon resonance (SPR), Single Cycle Kinetics; settings: KD ratio NRAS/KRAS, SPR
[2] = target: GDP-bound HRAS wild-type protein (Homo sapiens, UniProt P01112); assay: Binding to HRAS by surface plasmon resonance (SPR), Single Cycle Kinetics; settings: KD ratio HRAS/KRAS, SPR
GDP-bound HRAS wild-type protein, sequence (P01112 whole entry): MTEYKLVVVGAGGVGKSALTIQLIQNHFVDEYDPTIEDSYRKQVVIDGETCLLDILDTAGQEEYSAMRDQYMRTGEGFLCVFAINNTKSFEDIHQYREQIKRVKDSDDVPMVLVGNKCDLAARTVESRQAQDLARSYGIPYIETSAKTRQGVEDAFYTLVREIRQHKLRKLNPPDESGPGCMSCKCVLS

GDP-bound NRAS wild-type protein, sequence (P01111 whole entry): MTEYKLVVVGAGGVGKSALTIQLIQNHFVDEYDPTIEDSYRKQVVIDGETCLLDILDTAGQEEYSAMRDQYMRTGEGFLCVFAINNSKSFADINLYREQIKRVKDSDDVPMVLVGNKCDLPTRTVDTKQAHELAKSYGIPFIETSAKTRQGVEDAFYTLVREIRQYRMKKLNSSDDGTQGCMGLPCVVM

SMILES | NRAS/KRAS (ratio of KD value with respect to GDP-bound NRAS wild-type protein to KD value with respect to KRAS) [1] | HRAS/KRAS (ratio of KD value with respect to GDP-bound HRAS wild-type protein to KD value with respect to KRAS) [2]
CCO[C@@H]1C[C@H]2C(=O)NC3(CCC3)C(=O)N(C)[C@@H](C3CCCC3)C(=O)N(C)[C@H](C(=O)N3CCOCC3)CC(=O)N(C)C(C)(C)C(=O)N[C@@H]([C@@H](C)CC)C(=O)N(C)CC(=O)N(C)[C@H]3CCCCN(C3=O)[C@@H](Cc3ccc(C(F)(F)F)cc3)C(=O)N(C)CC(=O)N[C@@H](CCc3cc(F)c(C(F)(F)F)c(F)c3)C(=O)N2C1 [PP0722] | C (A compound having a KD ratio of 0.1 or more and less than 3 is denoted as C) | B (a compound having 3 or more and less than 10 is denoted as B)
CCO[C@@H]1C[C@H]2C(=O)NC3(CC(C)(C)C3)C(=O)N(C)[C@@H](C3CCCC3)C(=O)N(C)[C@H](C(=O)N(C)C)CC(=O)N(C)[C@@H](C)C(=O)N[C@@H]([C@@H](C)CC)C(=O)N(C)CC(=O)N(C)[C@H]3CCCCCN(C3=O)[C@@H](Cc3ccc(C(F)(F)F)cc3)C(=O)N(C)CC(=O)N[C@@H](CCc3cc(F)c(C(F)(F)F)c(F)c3)C(=O)N2C1 [PP0723] | B (a compound having 3 or more and less than 10 is denoted as B) | B (a compound having 3 or more and less than 10 is denoted as B)
CCO[C@@H]1C[C@H]2C(=O)NC3(CC=CC3)C(=O)N(C)[C@@H](C3CCCC3)C(=O)N(C)[C@H](C(=O)N(C)C)CC(=O)N(C)[C@@H](C)C(=O)N[C@@H]([C@@H](C)CC)C(=O)N(C)CC(=O)N(C)[C@H]3CCCCCN(C3=O)[C@@H](Cc3ccc(C(F)(F)F)cc3)C(=O)N(C)CC(=O)N[C@@H](CCc3cc(F)c(C(F)(F)F)c(F)c3)C(=O)N2C1 [PP0724] | B (a compound having 3 or more and less than 10 is denoted as B) | B (a compound having 3 or more and less than 10 is denoted as B)
CCO[C@@H]1C[C@H]2C(=O)NC3(CCC(F)(F)CC3)C(=O)N(C)[C@@H](C3CCCC3)C(=O)N(C)[C@H](C(=O)N(C)C)CC(=O)N(C)[C@@H](C)C(=O)N[C@@H]([C@@H](C)CC)C(=O)N(C)CC(=O)N(C)[C@H]3CCCCCN(C3=O)[C@@H](Cc3ccc(C(F)(F)F)cc3)C(=O)N(C)CC(=O)N[C@@H](CCc3cc(F)c(C(F)(F)F)c(F)c3)C(=O)N2C1 [PP0725] | B (a compound having 3 or more and less than 10 is denoted as B) | B (a compound having 3 or more and less than 10 is denoted as B)
CCO[C@@H]1C[C@H]2C(=O)NC3(CC(C)(C)C3)C(=O)N(C)[C@@H](C3CCCC3)C(=O)N(C)[C@H](C(=O)N3CCOCC3)CC(=O)N(C)[C@@H](CC(C)C)C(=O)N[C@@H]([C@@H](C)CC)C(=O)N(C)CC(=O)N(C)[C@H]3CCCCCN(C3=O)[C@@H](Cc3ccc(C(F)(F)F)cc3)C(=O)N(C)CC(=O)N[C@@H](CCc3cc(F)c(C(F)(F)F)c(F)c3)C(=O)N2C1 [PP0726] | B (a compound having 3 or more and less than 10 is denoted as B) | B (a compound having 3 or more and less than 10 is denoted as B)
CCO[C@@H]1C[C@H]2C(=O)NC3(CC=CC3)C(=O)N(C)[C@@H](C3CCCC3)C(=O)N(C)[C@H](C(=O)N3CCOCC3)CC(=O)N(C)[C@@H](CC(C)C)C(=O)N[C@@H]([C@@H](C)CC)C(=O)N(C)CC(=O)N(C)[C@H]3CCCCCN(C3=O)[C@@H](Cc3ccc(C(F)(F)F)cc3)C(=O)N(C)CC(=O)N[C@@H](CCc3cc(F)c(C(F)(F)F)c(F)c3)C(=O)N2C1 [PP0727] | B (a compound having 3 or more and less than 10 is denoted as B) | B (a compound having 3 or more and less than 10 is denoted as B)
CCO[C@@H]1C[C@H]2C(=O)NC3(CCC(F)(F)CC3)C(=O)N(C)[C@@H](C3CCCC3)C(=O)N(C)[C@H](C(=O)N3CCOCC3)CC(=O)N(C)[C@@H](CC(C)C)C(=O)N[C@@H]([C@@H](C)CC)C(=O)N(C)CC(=O)N(C)[C@H]3CCCCCN(C3=O)[C@@H](Cc3ccc(C(F)(F)F)cc3)C(=O)N(C)CC(=O)N[C@@H](CCc3cc(F)c(C(F)(F)F)c(F)c3)C(=O)N2C1 [PP0728] | B (a compound having 3 or more and less than 10 is denoted as B) | B (a compound having 3 or more and less than 10 is denoted as B)
CCO[C@@H]1C[C@H]2C(=O)NC3(CCC3)C(=O)N(C)[C@@H](C3CCCC3)C(=O)N(C)[C@H](C(=O)N(C)C)CC(=O)N(C)[C@@H](C)C(=O)N[C@@H]([C@H](C)CC)C(=O)N(C)CC(=O)N(C)[C@H]3CCCCCN(C3=O)[C@@H](Cc3ccc(C(F)(F)F)cc3)C(=O)N(C)CC(=O)N[C@@H](CCc3cc(F)c(C(F)(F)F)c(F)c3)C(=O)N2C1 [PP0729] | B (a compound having 3 or more and less than 10 is denoted as B) | B (a compound having 3 or more and less than 10 is denoted as B)
CCO[C@@H]1C[C@H]2C(=O)NC3(CCC3)C(=O)N(C)[C@@H](C3CCCC3)C(=O)N(C)[C@H](C(=O)N(C)C)CC(=O)N(C)[C@@H](C)C(=O)N[C@@H]([C@H](C)CC)C(=O)N(C)CC(=O)N(C)[C@H]3CCCCN(C3=O)[C@@H](Cc3ccc(C(F)(F)F)cc3)C(=O)N(C)CC(=O)N[C@@H](CCc3cc(F)c(C(F)(F)F)c(F)c3)C(=O)N2C1 [PP0730] | C (A compound having a KD ratio of 0.1 or more and less than 3 is denoted as C) | C (A compound having a KD ratio of 0.1 or more and less than 3 is denoted as C)
CC[C@H](C)[C@@H]1NC(=O)[C@H](CC)N(C)C(=O)C[C@@H](C(=O)N(C)C)N(C)C(=O)[C@H](C2CCCC2)N(C)C(=O)C2(CCC2)NC(=O)[C@@H]2C[C@H](N3CCC(F)(F)CC3)CN2C(=O)[C@H](CCc2cc(F)c(C(F)(F)F)c(F)c2)NC(=O)CN(C)C(=O)[C@H](Cc2ccc(C(F)(F)F)cc2)N2CCCCC[C@@H](C2=O)N(C)C(=O)CN(C)C1=O [PP0731] | B (a compound having 3 or more and less than 10 is denoted as B) | B (a compound having 3 or more and less than 10 is denoted as B)
CC[C@H](C)[C@@H]1NC(=O)[C@H](CC)N(C)C(=O)C[C@@H](C(=O)N(C)C)N(C)C(=O)[C@H](C2CCCC2)N(C)C(=O)C2(CCC2)NC(=O)[C@@H]2C[C@H](N3CCC(F)(F)CC3)CN2C(=O)[C@H](CCc2cc(F)c(C(F)(F)F)c(F)c2)NC(=O)CN(C)C(=O)[C@H](Cc2ccc(C(F)(F)F)cc2)N2CCCC[C@@H](C2=O)N(C)C(=O)CN(C)C1=O [PP0732] | C (A compound having a KD ratio of 0.1 or more and less than 3 is denoted as C) | B (a compound having 3 or more and less than 10 is denoted as B)
